{"source": "patent US6617117B1", "about": "“MAP kinases: polypeptides, polynucleotides and uses thereof” (Medical Research Council, priority 1996, dated 2003)", "key": {"human SAPK3": {"target": "T1, human SAPK3 (Homo sapiens, UniProt P53778)", "T1 construct": "made in house; host or cells: E. coli BL21(DE3)", "T1 sequence (P53778 1-367)": "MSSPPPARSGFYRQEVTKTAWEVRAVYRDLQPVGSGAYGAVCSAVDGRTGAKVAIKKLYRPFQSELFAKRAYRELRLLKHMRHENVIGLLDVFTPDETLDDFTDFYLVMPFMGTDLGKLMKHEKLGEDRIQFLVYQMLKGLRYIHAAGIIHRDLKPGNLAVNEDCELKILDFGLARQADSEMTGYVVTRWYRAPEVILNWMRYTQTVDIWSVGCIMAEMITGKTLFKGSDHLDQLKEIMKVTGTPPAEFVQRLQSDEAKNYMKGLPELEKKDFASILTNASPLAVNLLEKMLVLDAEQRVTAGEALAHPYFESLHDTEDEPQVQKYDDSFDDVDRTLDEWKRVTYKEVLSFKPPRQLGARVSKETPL", "test": "Inhibition of SAPK3, MBP phosphorylation (FIG. 9)", "type": "biochemical", "experimental": "SAPK4, SAPK2a and SAPK2b were assayed routinely by the phosphorylation of MBP, exactly as described for SAPK3 in Example 4 and Cuenda et al, 1997. One unit of activity was that amount of enzyme which incorporated 1 nmol of phosphate into MBP in 1 min. SAPK4 activators were assayed by their ability to activate GST-SAPK4, as described for GST-SAPK3 in Example 4 and Cuenda et al, 1997. Control experiments were carried out in which GST-SAPK4 was omitted. One unit of SAPK4 activator was that amount which increased SAPK4 activity by I U/min. […] SAPK2a activators were assayed by their ability to activate the X. laevis homologue of SAPK2a (Meier et al, 1996). Activated SAPK2a itself was measured by the activation of GST-MAPKAP-K2(46400).\n(§1) Protein kinase assays. SAPK3 was assayed routinely by the phosphorylation of MBP. SAPK3 (0.5 or 1 μM) in 40 μl of 25 mM Tris/HCl pH 7.5, 0.1 mM EGTA, 0.1 mM sodium orthovanadate, 1 μM PKI and 0.33 mg/ml MBP was incubated for 3 min at 30° C. before initiating the reaction with 10 μl of 50 mM magnesium acetate-0.5 mM [γ-^32P]ATP. After 20 min at 30° C. 40 μl aliquots were withdrawn, spotted on to 1.5×1.5 cm squares of Whatman P81 phosphocellulose paper and immersed in 75 mM phosphoric acid. After washing and drying the papers (Alessi et al, 1995b), ^32P radioactivity incorporated into MBP was measured. One unit of activity was that amount of enzyme which incorporated 1 nmol of phosphate into MBP in 1 min."}, "SAPK3 (GST-SAPK3)": {"target": "T2, SAPK3 (GST-SAPK3) (Rattus norvegicus, UniProt Q63538)", "T2 construct": "made in house; host or cells: E. coli BL21 (DE3)", "T2 sequence (Q63538 1-367)": "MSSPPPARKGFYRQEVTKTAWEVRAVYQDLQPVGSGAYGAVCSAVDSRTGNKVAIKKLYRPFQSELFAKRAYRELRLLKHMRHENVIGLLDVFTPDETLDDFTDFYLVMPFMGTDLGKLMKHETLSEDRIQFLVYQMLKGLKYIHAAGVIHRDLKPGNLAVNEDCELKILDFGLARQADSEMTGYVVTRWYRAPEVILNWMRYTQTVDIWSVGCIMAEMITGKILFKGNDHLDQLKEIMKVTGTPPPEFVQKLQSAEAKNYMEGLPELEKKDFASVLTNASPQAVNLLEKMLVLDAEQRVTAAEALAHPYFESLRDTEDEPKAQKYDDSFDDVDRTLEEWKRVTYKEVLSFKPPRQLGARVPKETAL", "test": "Effect of SB 203580 on SKK3-activated SAPK3 (FIG. 19)", "type": "biochemical", "conditions": "even at a concentration of 0.1 mM; activated in vitro with purified SKK3", "experimental": "as §1"}}}
{"smiles": "C[S+]([O-])c1ccc(-c2nc(-c3ccncc3)c(-c3ccc(F)cc3)[nH]2)cc1", "note": "(stereo not drawn) [SB 203580]", "values": [{"measurement": "Inhibition of SAPK3", "setting": "human SAPK3; SAPK3 activated by SKK3 in vitro", "result": "not inhibited"}, {"measurement": "Inhibition of dephosphorylated form of SAPK3", "setting": "human SAPK3; dephosphorylated form, <0.1% of the activity of the phosphorylated form, data not shown", "result": "failed to inhibit"}, {"measurement": "Inhibition of SAPK3", "setting": "SAPK3 (GST-SAPK3)", "result": "not inhibited significantly"}]}
